Assay results taken from US4567175A, “8-Chloro-1,5-benzothiazepine derivatives” (Tanabe Seiyaku Co., Ltd., priority 1983, dated 1986).

Columns and labels:
[1] = tested on: spontaneously hypertensive rats (SHR); assay: Hypotensive activity, oral administration to SHR, systolic blood pressure by tail plethysmography (Experiment 1); type: in vivo; conditions: 30 mg/kg oral
Protocol: A test compound (dose: 30 mg/kg) dissolved or suspended in water was administered orally to spontaneously hypertensive rats (SHR) (one group: 3 rats) fasted overnight. The systolic blood pressure of the rats was measured by the tail plethysmographic technique (The Journal of Laboratory and Clinical Medicine 78(1971), page 957). The hypotensive activity of the test compound was estimated at one or 4 hours after dosing and expressed as "-" if the decrease in blood pressure is less than 10 mm Hg; "+" if the decrease is not less than 10 mm Hg but less than 20 mm Hg; "++" if the decrease is not less than 20 mm Hg but less than 40 mm Hg; "+++" if the decrease is not less than 40 mm Hg but less than 60 mm Hg; or "++++" if the decrease is not less than 60 mm Hg.

[2] = tested on: platelet aggregation; assay: Platelet aggregation-inhibiting activity, collagen-induced aggregation in rat platelet-rich plasma, Born's method (Experiment 5); type: cell-based, male Sprague-Dawley rats; set-up: key: -: less than 10% inhibition of platelet aggregation; +: not less than 10% inhibition of platelet aggregation but said percentage inhibition was lower than that of acetylsalicylic acid (100 μg/ml); ++: platelet aggregation-inhibiting activity at least as strong as that of acetylsalicylic acid (100 μg/ml); conditions: final concentration 100 μg/ml, rat PRP, 37° C.
Text: Blood was collected from the abdominal aorta of male Sprague-Dawley rats which were anesthetized with ether. Nine volumes of rat blood were mixed with one volume of an aqueous trisodium citrate solution, and the mixture was centrifuged to give platelet-rich plasma ("PRP") as the supernatant solution. The bottom layer was further centrifuged to give platelet-poor plasma ("PPP") as the supernatant solution. Platelet counts were adjusted to 0.8-1×10^6 /mm^3 for PRP by dilution with PPP. After a mixture of 200 μl of the diluted PRP and 25 μl of a test compound solution (final concentration: 100 μg/ml) was stirred for 2 minutes at 37° C., 25 μl of a collagen solution [Biochim. Biophys. Acta, 186, page 254(1969)] were added thereto. The degree of platelet aggregation was estimated by Born's method [Nature, 194, page 927(1962)] and the percentage inhibition of platelet aggregation was calculated therefrom.

[3] = tested on: isolated heart of guinea pig; assay: Coronary vasodilating activity: Langendorff's method, coronary blood flow of isolated guinea pig heart (Experiment 4); conditions: for Coronary vasodilating activity (increase in coronary blood flow): isolated guinea pig heart, Langendorff, 30° C.
Protocol: Langendorff's method was used for testing the effect on the coronary blood flow of the isolated heart of guinea pig (about 280 g). The isolated heart was perfused with Locke-Ringer solution containing 2% of defibrinated rabbit blood, which had been saturated with a mixed gas of 95% O2 and 5% CO2 (30° C.). Perfusion pressure was kept at 40 cm H2 O. A solution of a test compound in an aqueous 5% glucose solution was injected into the perfusing solution at a volume of 0.1 ml per heart. The overflow of the perfusate was measured by means of a drop counter.
The coronary vasodilating activity of the test compound was expressed as "±" if the increase in coronary blood flow is less than 0.5 ml/minute at a dose of 100 μg/heart; "+" if the increase is not less than 0.5 ml/minute at a dose of 100 μg/heart; "++" if the increase is not less than 0.5 ml/minute at a dose of 30 μg/heart; and "+++" if the increase is not less than 0.5 ml/minute at a dose of not more than 10 μg/heart.

[4] = tested on: vertebral artery; assay: Cerebral vasodilating activity: vertebral artery blood flow in anesthetized dogs, intraarterial injection, potency ratio to papaverine (Experiment 2); type: in vivo; conditions: for Cerebral vasodilating activity (potency ratio): injected into vertebral artery, potency ratio to papaverine from dose-response curves; for increase in vertebral artery blood flow (in words) / cerebral vasodilating activity, times stronger than the 7-chloro derivative: intraarterial; for cerebral vasodilating activity, times stronger than the 7-chloro derivative: versus (+)-cis-...-7-chloro-... hydrochloride (so in the source)
Protocol: On the other hand, when the coronary vasodilating activity is estimated by the Langendorff method using isolated hearts of guinea pigs, said activity of (+)-cis-2-(4-methoxyphenyl)-3-acetoxy-5-[2-(dimethylamino)ethyl]-8-chloro- 2,3-dihydro-1,5-benzothiazepin-4(5H)-one hydrochloride is about 10 times stronger than that of papaverine.
Male dogs weighing 10 to 20 kg were anesthetized with sodium pentobarbital (30 mg/kg, intravenous injection). The blood flow in vertebral artery was measured continuously by means of an electromagnetic flowmeter under artificial respiration. A test compound dissolved in an aqueous 5% glucose solution was injected into vertebral artery. The cerebral vasodilating activity of the test compound was estimated in terms of the potency ratio of said compound to papaverine, which was calculated from the dose-response curves thereof.

[5] = Acute toxicity (LD50), oral administration to mice; conditions: mouse, in vivo
Protocol: For example, the acute toxicity (LD50) of (+)-cis-2-(4-methoxyphenyl)-3-acetoxy-5-[2-(dimethylamino)ethyl]-8-chloro- 2,3-dihydro-1,5-benzothiazepin-4(5H)-one hydrochloride when orally administered to mice is more than 1000 mg/kg.

[6] = tested on: vertebral artery; assay: Cerebral vasodilating activity: increase in vertebral artery blood flow in anesthetized dogs after femoral vein injection (Experiment 3); type: in vivo; conditions: 200 μg/kg into femoral vein
Protocol: Male dogs weighing about 20-24 kg (one group: 2 dogs) were anesthetized with sodium pentobarbital (35 mg/kg, intravenous injection). The blood flow in vertebral artery was measured by means of an electromagnetic flowmeter under artificial respiration. A test compound (i.e., (+)-cis-2-(4-methoxyphenyl)-3-acetoxy-5-[2-(dimethylamino)ethyl]-8-chloro- 2,3-dihydro-1,5-benzothiazepin-4(5H)-one hydrochloride) in a physiological saline solution was injected into the femoral vein at a dose of 200 μg/kg. The cerebral vasodilating activity of the test compound was estimated in terms of "increase (Δml/minute) in vertebral artery blood flow" which was calculated by subtracting "the blood flow measured immediately before injection of test compound" from "the blood flow measured at a period of time after injection of test compound".

Row | SMILES | Hypotensive activity (decrease in blood pressure), 1 hr after dosing [1] | Hypotensive activity (decrease in blood pressure), 4 hrs after dosing [1] | Platelet aggregation-inhibiting activity [2] | Coronary vasodilating activity (increase in coronary blood flow) [3] | Cerebral vasodilating activity (potency ratio) [4] | other results
1 | CCN(C)CCN1C(=O)[C@H](OC(C)=O)[C@H](c2ccc(OC)cc2)Sc2cc(Cl)ccc21.Cl (racemic) [(±)-cis-2-(4-methoxyphenyl)-3-acetoxy-5-[2-(N-methyl-N-ethylamino)ethyl]-8-chloro-2,3-dihydro-1,5-benzothiazepin-4(5H)-one hydrochloride] | +++ (decrease is not less than 40 mm Hg but less than 60 mm Hg) | +++ (decrease is not less than 40 mm Hg but less than 60 mm Hg) |  |  |  | 
2 | CCCN(C)CCN1C(=O)[C@H](OC(C)=O)[C@H](c2ccc(OC)cc2)Sc2cc(Cl)ccc21.O=C(O)C(=O)O (racemic) [(±)-cis-2-(4-methoxyphenyl)-3-acetoxy-5-[2-(N-methyl-N-n-propylamino)ethyl]-8-chloro-2,3-dihydro-1,5-benzothiazepin-4(5H)-one oxalate] |  |  | ++ | +++ (increase is not less than 0.5 ml/minute at a dose of not more than 10 μg/heart) |  | 
3 | COc1ccc([C@@H]2Sc3ccc(Cl)cc3N(CCN(C)C)C(=O)[C@@H]2OC(C)=O)cc1.Cl (racemic) [(±)-cis-2-(4-methoxyphenyl)-3-acetoxy-5-[2-(dimethylamino)ethyl]-7-chloro-2,3-dihydro-1,5-benzothiazepin-4(5H)-one hydrochloride, reference compound] | - (decrease in blood pressure is less than 10 mm Hg) | ++ (decrease is not less than 20 mm Hg but less than 40 mm Hg) |  |  | 5 | 
4 | COc1ccc([C@@H]2Sc3cc(Cl)ccc3N(CCN(C)C)C(=O)[C@@H]2OC(C)=O)cc1.Cl (racemic) [(±)-cis-2-(4-methoxyphenyl)-3-acetoxy-5-[2-(dimethylamino)ethyl]-8-chloro-2,3-dihydro-1,5-benzothiazepin-4(5H)-one hydrochloride] | ++ (decrease is not less than 20 mm Hg but less than 40 mm Hg) | ++++ (decrease is not less than 60 mm Hg) | ++ | +++ (increase is not less than 0.5 ml/minute at a dose of not more than 10 μg/heart) |  | 
5 | CCN(CC)CCN1C(=O)[C@H](OC(C)=O)[C@H](c2ccc(OC)cc2)Sc2cc(Cl)ccc21.O=C(O)C(=O)O (single isomer, unassigned) [(+)-cis-2-(4-methoxyphenyl)-3-acetoxy-5-[2-(diethylamino)ethyl]-8-chloro-2,3-dihydro-1,5-benzothiazepin-4(5H)-one oxalate] |  |  | ++ |  |  | 
6 | COc1ccc([C@@H]2Sc3cc(Cl)ccc3N(CCN(C)C)C(=O)[C@@H]2OC(C)=O)cc1.Cl (single isomer, unassigned) [(+)-cis-2-(4-methoxyphenyl)-3-acetoxy-5-[2-(dimethylamino)ethyl]-8-chloro-2,3-dihydro-1,5-benzothiazepin-4(5H)-one hydrochloride] |  |  |  | +++ (increase is not less than 0.5 ml/minute at a dose of not more than 10 μg/heart) | 25 | LD50 [5]: > 1000 mg/kg; increase in vertebral artery blood flow (in words) [4]: remarkable increase; cerebral vasodilating activity, times stronger than the 7-chloro derivative [4]: about 5 times; coronary vasodilating activity, times stronger than papaverine ([3]; Langendorff method, isolated hearts of guinea pigs, versus papaverine): about 10 times; Increase in vertebral artery blood flow, 1 minute ([6]; 1 minute after injection): 58 Δml/minute; Increase in vertebral artery blood flow, 3 minutes ([6]; 3 minutes after injection): 53 Δml/minute; Increase in vertebral artery blood flow, 5 minutes ([6]; 5 minutes after injection): 52 Δml/minute; Increase in vertebral artery blood flow, 10 minutes ([6]; 10 minutes after injection): 38 Δml/minute; Increase in vertebral artery blood flow, 20 minutes ([6]; 20 minutes after injection): 21 Δml/minute; Increase in vertebral artery blood flow, 30 minutes ([6]; 30 minutes after injection): 14 Δml/minute
7 | COc1ccc([C@@H]2Sc3cc(Cl)ccc3N(CCN(C)C)C(=O)[C@@H]2OC(C)=O)cc1.O=C(O)/C=C\C(=O)O (single isomer, unassigned) [(+)-cis-2-(4-methoxyphenyl)-3-acetoxy-5-[2-(dimethylamino)ethyl]-8-chloro-2,3-dihydro-1,5-benzothiazepin-4(5H)-one maleate] | ++++ (decrease is not less than 60 mm Hg) | ++++ (decrease is not less than 60 mm Hg) |  |  |  | decrease in blood pressure, 4 hours after administration ([1]; 4 hours): ~68 mm Hg; decrease in blood pressure, one hour after administration ([1]; one hour): about 86 mm Hg
8 | COc1ccc([C@@H]2Sc3cc(Cl)ccc3N(CCN(C)C)C(=O)[C@@H]2O)cc1.O=C(O)C(=O)O (single isomer, unassigned) [(+)-cis-2-(4-methoxyphenyl)-3-hydroxy-5-[2-(dimethylamino)ethyl]-8-chloro-2,3-dihydro-1,5-benzothiazepin-4(5H)-one oxalate] |  |  | ++ |  |  | 
9 | CCC(=O)O[C@H]1C(=O)N(CCN(C)C)c2ccc(Cl)cc2S[C@H]1c1ccc(OC)cc1.O=C(O)C(=O)O (single isomer, unassigned) [(+)-cis-2-(4-methoxyphenyl)-3-propionyloxy-5-[2-(dimethylamino)ethyl]-8-chloro-2,3-dihydro-1,5-benzothiazepin-4(5H)-one oxalate] |  |  | ++ |  | 23.7 | increase in vertebral artery blood flow (in words) [4]: remarkable increase; cerebral vasodilating activity, times stronger than the 7-chloro derivative [4]: about 5 times
10 | COc1ccc(Cc2nccc3cc(OC)c(OC)cc23)cc1OC [Papaverine, reference compound] |  |  |  | + (increase is not less than 0.5 ml/minute at a dose of 100 μg/heart) |  | 
